Patent US6737383B1, “Herbicidal oxadiazolidines” (priority 1999, dated 2004)

How the values were obtained:
[1] = system: bedstraw; assay: Test B pre/postemergence bedstraw; assay type: in vivo, Galium aparine
Procedure, shortened: (§1)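 Response is a visual 0-to-10 score relative to untreated plants, where 0 means no effect and 10 means complete control, taken twelve to sixteen days after application. Treatments went onto soil at planting and onto foliage of 1- to 4-leaf plants, using a surfactant-containing non-phytotoxic solvent.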

[2] = system: blackgrass; assay: Test B pre/postemergence blackgrass; assay type: in vivo, Alopecurus myosuroides
Procedure, shortened: as §1

[3] = system: surinam grass; assay: Test B pre/postemergence surinam grass; assay type: in vivo, Brachiaria decumbens
Procedure, shortened: as §1

[4] = system: cocklebur; assay: Test B pre/postemergence cocklebur; assay type: in vivo, Xanthium strumarium
Procedure, shortened: as §1

[5] = system: corn; assay: Test B pre/postemergence corn; assay type: in vivo, Zea mays
Procedure, shortened: as §1

[6] = system: crabgrass; assay: Test B pre/postemergence crabgrass; assay type: in vivo, Digitaria sanguinalis
Procedure, shortened: as §1

[7] = system: giant foxtail; assay: Test B pre/postemergence giant foxtail; assay type: in vivo, Setaria faberii
Procedure, shortened: as §1

[8] = system: morningglory; assay: Test B pre/postemergence morningglory; assay type: in vivo, Ipomoea hederacea
Procedure, shortened: as §1

[9] = system: pigweed; assay: Test B pre/postemergence pigweed; assay type: in vivo, Amaranthus retroflexus
Procedure, shortened: as §1

[10] = system: rape; assay: Test B pre/postemergence rape; assay type: in vivo, Brassica napus
Procedure, shortened: as §1

[11] = system: soybean; assay: Test B pre/postemergence soybean; assay type: in vivo, Glycine max
Procedure, shortened: as §1

[12] = system: sugar beet; assay: Test B pre/postemergence sugar beet; assay type: in vivo, Beta vulgaris
Procedure, shortened: as §1

[13] = system: velvetleaf; assay: Test B pre/postemergence velvetleaf; assay type: in vivo, Abutilon theophrasti
Procedure, shortened: as §1

[14] = system: wheat; assay: Test B pre/postemergence wheat; assay type: in vivo, Triticum aestivum
Procedure, shortened: as §1

[15] = system: wild oat; assay: Test B pre/postemergence wild oat; assay type: in vivo, Avena fatua
Procedure, shortened: as §1

[16] = system: purple nutsedge; assay: Test B pre/postemergence purple nutsedge; assay type: in vivo, Cyperus rotundus
Procedure, shortened: as §1

[17] = Preemergence, Rate 62 g/ha, scale of 0 to 10 where 0 is no effect and 10 is complete control
[18] = Preemergence, Rate 250 g/ha, scale of 0 to 10 where 0 is no effect and 10 is complete control
[19] = Preemergence, Rate 500 g/ha, scale of 0 to 10 where 0 is no effect and 10 is complete control
[20] = Rate 62 g/ha, Postemergence, scale of 0 to 10 where 0 is no effect and 10 is complete control
[21] = Rate 125 g/ha, Postemergence, scale 0 to 10
[22] = Rate 125 g/ha, Preemergence, scale of 0 to 10 where 0 is no effect and 10 is complete control
[23] = Rate 500 g/ha, Postemergence, scale 0 to 10, 0 no effect, 10 complete control
[24] = Preemergence, Rate 250 g/ha, scale 0 to 10 (0 no effect, 10 complete control)
[25] = Preemergence, Rate 125 g/ha, scale of 0 to 10 where 0 is no effect and 10 is complete control

Structure (SMILES): CC(C)=CCCC(C)=CCn1c(=O)on(C(=O)N(c2ccc(F)cc2)C(C)C)c1=O [Compound 262]
- Bedstraw plant response rating [1, 17]: 0
- Bedstraw plant response rating [1, 18]: 0
- Plant response rating, Bedstraw [1, 19]: 0
- Bedstraw plant response rating [1, 20]: 0
- Bedstraw plant response rating [1, 21]: 0
- Bedstraw plant response rating [1, 22]: 0
- Blackgrass plant response rating [2, 17]: 0
- Blackgrass plant response rating [2, 18]: 2
- Plant response rating, Blackgrass [2, 19]: 4
- Blackgrass plant response rating [2, 20]: 0
- Blackgrass plant response rating [2, 21]: 0
- Blackgrass plant response rating [2, 22]: 0
- Plant response rating (0 to 10; 0 is no effect, 10 is complete control), Blackgrass ([2]; Rate 250 g/ha, Postemergence): 0
- Blackgrass plant response rating [2, 23]: 0
- B. signalgrass plant response rating [3, 17]: 0
- B. signalgrass plant response rating [3, 18]: 0
- Plant response rating, B. signalgrass [3, 19]: 0
- B. signalgrass plant response rating [3, 20]: 0
- B. signalgrass plant response rating ([3]; Rate 125 g/ha, Postemergence, scale 0 (no effect) to 10 (complete control)): 0
- B. signalgrass plant response rating [3, 22]: 0
- Plant response rating (0 to 10; 0 is no effect, 10 is complete control), B. signalgrass ([3]; Rate 250 g/ha, Postemergence): 0
- B. signalgrass plant response rating [3, 23]: 0
- Cocklebur plant response rating [4, 17]: 0
- Cocklebur plant response rating [4, 18]: 0
- Plant response rating, Cocklebur [4, 19]: 0
- Cocklebur plant response rating [4, 20]: 0
- Cocklebur plant response rating [4, 21]: 0
- Cocklebur plant response rating [4, 22]: 0
- Plant response rating (0 to 10; 0 is no effect, 10 is complete control), Cocklebur ([4]; Rate 250 g/ha, Postemergence): 0
- Cocklebur plant response rating [4, 23]: 0
- Corn plant response rating [5, 17]: 0
- Corn plant response rating [5, 18]: 0
- Plant response rating, Corn [5, 19]: 0
- Corn plant response rating [5, 20]: 0
- Corn plant response rating [5, 21]: 0
- Corn plant response rating [5, 22]: 0
- Plant response rating (0 to 10; 0 is no effect, 10 is complete control), Corn ([5]; Rate 250 g/ha, Postemergence): 0
- Corn plant response rating [5, 23]: 0
- Crabgrass plant response rating [6, 17]: 0
- Crabgrass plant response rating [6, 18]: 2
- Plant response rating, Crabgrass [6, 19]: 3
- Crabgrass plant response rating [6, 22]: 2
- Plant response rating (0 to 10; 0 is no effect, 10 is complete control), Crabgrass ([6]; Rate 250 g/ha, Postemergence): 0
- Crabgrass plant response rating [6, 23]: 0
- Giant foxtail plant response rating [7, 17]: 0
- Plant response rating, Giant foxtail [7, 19]: 7
- Giant foxtail plant response rating [7, 22]: 3
- Plant response rating (0 to 10; 0 is no effect, 10 is complete control), Giant foxtail ([7]; Rate 250 g/ha, Postemergence): 0
- Giant foxtail plant response rating [7, 23]: 0
- Morningglory plant response rating [8, 17]: 0
- Morningglory plant response rating [8, 18]: 0
- Plant response rating, Morningglory [8, 19]: 0
- Morningglory plant response rating [8, 22]: 0
- Plant response rating (0 to 10; 0 is no effect, 10 is complete control), Morningglory ([8]; Rate 250 g/ha, Postemergence): 5
- Morningglory plant response rating [8, 23]: 7
- Redroot pigweed plant response rating [9, 17]: 0
- Redroot pigweed plant response rating [9, 18]: 0
- Plant response rating, Redroot pigweed [9, 19]: 0
- Redroot pigweed plant response rating [9, 22]: 0
- Plant response rating (0 to 10; 0 is no effect, 10 is complete control), Redroot pigweed ([9]; Rate 250 g/ha, Postemergence): 3
- Redroot pigweed plant response rating [9, 23]: 4
- Rape plant response rating [10, 17]: 0
- Rape plant response rating [10, 18]: 0
- Plant response rating, Rape [10, 19]: 0
- Rape plant response rating [10, 22]: 0
- Plant response rating (0 to 10; 0 is no effect, 10 is complete control), Rape ([10]; Rate 250 g/ha, Postemergence): 0
- Rape plant response rating [10, 23]: 0
- Soybean plant response rating [11, 17]: 0
- Soybean plant response rating [11, 18]: 0
- Plant response rating, Soybean [11, 19]: 0
- Soybean plant response rating [11, 22]: 0
- Soybean plant response rating [11, 23]: 4
- Sugarbeets plant response rating [12, 17]: 0
- Sugarbeets plant response rating [12, 18]: 0
- Plant response rating, Sugarbeets [12, 19]: 0
- Sugarbeets plant response rating [12, 22]: 0
- Sugarbeets plant response rating [12, 23]: 0
- Velvetleaf plant response rating [13, 17]: 0
- Velvetleaf plant response rating [13, 18]: 0
- Plant response rating, Velvetleaf [13, 19]: 0
- Velvetleaf plant response rating [13, 22]: 0
- Velvetleaf plant response rating [13, 23]: 2
- Wheat plant response rating [14, 17]: 0
- Wheat plant response rating [14, 18]: 0
- Plant response rating, Wheat [14, 19]: 0
- Wheat plant response rating [14, 22]: 0
- Wheat plant response rating [14, 23]: 0
- Wild oats plant response rating [15, 17]: 0
- Wild oats plant response rating [15, 18]: 0
- Plant response rating, Wild oats [15, 19]: 0
- Wild oats plant response rating [15, 22]: 0
- Wild oats plant response rating [15, 23]: 0
- Nutsedge plant response rating [16, 17]: 0
- Nutsedge plant response rating [16, 18]: 0
- Plant response rating, Nutsedge [16, 19]: 0
- Nutsedge plant response rating [16, 22]: 0
- Plant response rating (0 to 10; 0 is no effect, 10 is complete control), Nutsedge ([16]; Rate 250 g/ha, Postemergence): 0
- Nutsedge plant response rating [16, 23]: 0

Structure (SMILES): CC(C)N(C(=O)n1oc(=O)n(CC(Cl)Cl)c1=O)c1ccc(F)cc1F [Compound 673]
- Bedstraw plant response rating [1, 17]: 3
- Plant response rating, Bedstraw [1, 24]: 4
- Plant response rating, Bedstraw [1, 19]: 6
- Blackgrass plant response rating [2, 17]: 3
- Plant response rating, Blackgrass [2, 25]: 8
- Plant response rating, Blackgrass [2, 24]: 9
- Plant response rating, Blackgrass [2, 19]: 9
- B. signalgrass plant response rating [3, 17]: 4
- Plant response rating, B. signalgrass [3, 25]: 6
- Plant response rating, B. signalgrass [3, 24]: 7
- Plant response rating, B. signalgrass [3, 19]: 8
- Cocklebur plant response rating [4, 17]: 0
- Plant response rating, Cocklebur [4, 25]: 0
- Plant response rating, Cocklebur [4, 24]: 0
- Plant response rating, Cocklebur [4, 19]: 2
- Corn plant response rating [5, 17]: 0
- Plant response rating, Corn [5, 25]: 2
- Plant response rating, Corn [5, 24]: 4
- Plant response rating, Corn [5, 19]: 6
- Crabgrass plant response rating [6, 17]: 4
- Plant response rating, Crabgrass [6, 25]: 8
- Plant response rating, Crabgrass [6, 24]: 10
- Plant response rating, Crabgrass [6, 19]: 10
- Giant foxtail plant response rating [7, 17]: 9
- Plant response rating, Giant foxtail [7, 25]: 10
- Plant response rating, Giant foxtail [7, 24]: 10
- Plant response rating, Giant foxtail [7, 19]: 10
- Morningglory plant response rating [8, 17]: 0
- Plant response rating, Morningglory [8, 25]: 0
- Plant response rating, Morningglory [8, 24]: 0
- Plant response rating, Morningglory [8, 19]: 2
- Redroot pigweed plant response rating [9, 17]: 6
- Plant response rating, Redroot pigweed [9, 25]: 7
- Plant response rating, Redroot pigweed [9, 24]: 10
- Plant response rating, Redroot pigweed [9, 19]: 10
- Rape plant response rating [10, 17]: 1
- Plant response rating, Rape [10, 25]: 2
- Plant response rating, Rape [10, 24]: 2
- Plant response rating, Rape [10, 19]: 2
- Soybean plant response rating [11, 17]: 0
- Plant response rating, Soybean [11, 25]: 0
- Plant response rating, Soybean [11, 24]: 0
- Plant response rating, Soybean [11, 19]: 0
- Sugarbeets plant response rating [12, 17]: 0
- Plant response rating, Sugarbeets [12, 25]: 0
- Plant response rating, Sugarbeets [12, 24]: 3
- Plant response rating, Sugarbeets [12, 19]: 3
- Velvetleaf plant response rating [13, 17]: 0
- Plant response rating, Velvetleaf [13, 25]: 3
- Plant response rating, Velvetleaf [13, 24]: 3
- Plant response rating, Velvetleaf [13, 19]: 8
- Wheat plant response rating [14, 17]: 0
- Plant response rating, Wheat [14, 25]: 0
- Plant response rating, Wheat [14, 24]: 0
- Wild oats plant response rating [15, 17]: 5
- Plant response rating, Wild oats [15, 24]: 9
- Plant response rating, Wild oats [15, 19]: 8
- Nutsedge plant response rating [16, 17]: 0
- Plant response rating, Nutsedge [16, 25]: 0
- Plant response rating, Nutsedge [16, 24]: 2
- Plant response rating, Nutsedge [16, 19]: 6
